# Laboratory results reported in patent US6355685B1, “Method of treating anxiety disorders” (Knoll Pharmaceutical Company, priority 1999, dated 2002).
# Test system: rat elevated plus-maze
# Assay: rat elevated plus-maze (animal model of anxiety)
# Assay type: in vivo
# Conditions: 3 mg/kg po
# Method: This model was carried out as described in J. Neurosci. Methods 1985; 14:149-167.
structure (smiles),measurement,value
"CC(C)CC(N(C)C)C1(c2ccc(Cl)cc2)CCC1.Cl.O (stereo not shown) [N-{1-[1-(4-chlorophenyl)cyclobutyl]-3-methylbutyl}-N,N-dimethylamine hydrochloride monohydrate]",open: total arm entry ratio,significant anxiolytic-like increase
